Tested on: 699152-130-R-J1-PDC complex spheroid viability
Assay: Anticancer human tumor 699152-130-R-J1-PDC patient-derived pancreatic carcinoma cell line growth inhibition [POLQ]
Conditions: for IC50: curve of first compound; for viability, T/C: stronger effect = lower value
Procedure, shortened: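 PDC + HUVEC + MSC complex spheroids; POLQ inhibitors ± partner drugs; top conc. at/near clinical Cmax, else 10 microM (SN-38 1 microM), half-log dilutions; 37 degrees C, 5% CO2.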

[1] = second compound 0.0316 µM, first compound 0.00316 µM
[2] = second compound 0.0316 µM, first compound 0.01 µM
[3] = second compound 0.0316 µM, first compound 0.0316 µM
[4] = second compound 0.0316 µM, first compound 0.1 µM
[5] = second compound 0.1 µM, first compound 0.00316 µM
[6] = second compound 0.1 µM, first compound 0.01 µM
[7] = second compound 0.1 µM, first compound 0.0316 µM
[8] = second compound 0.1 µM, first compound 0.1 µM
[9] = second compound 0.316 µM, first compound 0.00316 µM
[10] = second compound 0.316 µM, first compound 0.01 µM
[11] = second compound 0.316 µM, first compound 0.0316 µM
[12] = second compound 0.316 µM, first compound 0.1 µM
[13] = second compound 1 µM, first compound 0.00316 µM
[14] = second compound 1 µM, first compound 0.01 µM
[15] = second compound 1 µM, first compound 0.0316 µM
[16] = second compound 1 µM, first compound 0.1 µM
[17] = second compound 3.16 µM, first compound 0.00316 µM
[18] = second compound 3.16 µM, first compound 0.01 µM
[19] = second compound 3.16 µM, first compound 0.0316 µM
[20] = second compound 3.16 µM, first compound 0.1 µM
[21] = second compound 10 µM, first compound 0.00316 µM
[22] = second compound 10 µM, first compound 0.01 µM
[23] = second compound 10 µM, first compound 0.0316 µM
[24] = second compound 10 µM, first compound 0.1 µM
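Further: spheroids exposed to agents for 7 days before viability reading.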
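Wherever viability, T/C is given: percent of DMSO vehicle control viability so 100% = vehicle and 0% = no viable signal.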

`C=CCn1c(=O)c2cnc(Nc3ccc(N4CCN(C)CC4)cc3)nc2n1-c1cccc(C(C)(C)O)n1` + Cc1cccc(N(C)C(=O)C2C(O)CCN2c2nc(C)cc(C(F)(F)F)c2C#N)c1 was tested, and the IC50 (second compound 0.0316 µM) was > 1000 nM, the IC50 (second compound 0.1 µM) was > 1000 nM and the IC50 (second compound 0.316 µM) was > 1000 nM. For the same molecule, the IC50 (second compound 1 µM) was > 1000 nM, the IC50 (second compound 3.16 µM) was > 1000 nM and the IC50 (second compound 10 µM) was > 1000 nM. For the same molecule, the viability, T/C [1] was 94.8%, the viability, T/C [2] was 91% and the viability, T/C [3] was 87.4%. For the same molecule, the viability, T/C [4] was 86.9%, the viability, T/C (second compound 0.0316 µM, first compound 0.316 µM) was 80.3% and the viability, T/C (second compound 0.0316 µM, first compound 1 µM) was 73%. It also gave a viability, T/C [5] of 87.9%, a viability, T/C [6] of 90.2% and a viability, T/C [7] of 95.6%. The viability, T/C [8] was 83.9%, the viability, T/C (second compound 0.1 µM, first compound 0.316 µM) was 82.2% and the viability, T/C (second compound 0.1 µM, first compound 1 µM) was 68.7%. For the same molecule, the viability, T/C [9] was 88.8%, the viability, T/C [10] was 91.4% and the viability, T/C [11] was 89.4%. The viability, T/C [12] was 82.7%, the viability, T/C (second compound 0.316 µM, first compound 0.316 µM) was 85.4% and the viability, T/C (second compound 0.316 µM, first compound 1 µM) was 69.8%. For the same molecule, the viability, T/C [13] was 96.5%, the viability, T/C [14] was 85.2% and the viability, T/C [15] was 102%. The viability, T/C [16] was 84%, the viability, T/C (second compound 1 µM, first compound 0.316 µM) was 80.2% and the viability, T/C (second compound 1 µM, first compound 1 µM) was 67%. For the same molecule, the viability, T/C [17] was 83.3%, the viability, T/C [18] was 107% and the viability, T/C [19] was 97.6%. For the same molecule, the viability, T/C [20] was 99.2%, the viability, T/C (second compound 3.16 µM, first compound 0.316 µM) was 81.7% and the viability, T/C (second compound 3.16 µM, first compound 1 µM) was 65.4%. The viability, T/C [21] was 84.8%, the viability, T/C [22] was 89.3% and the viability, T/C [23] was 89.2%. It also gave a viability, T/C [24] of 86.7%, a viability, T/C (second compound 10 µM, first compound 0.316 µM) of 78.1% and a viability, T/C (second compound 10 µM, first compound 1 µM) of 73.9%.

In the case of `CC[C@@]1(O)C(=O)OCc2c1cc1n(c2=O)Cc2cc3c(CN(C)C)c(O)ccc3nc2-1` + Nc1ccc(C#CCN(C(=O)Cc2ncc(C(F)(F)F)cc2C(F)(F)F)c2ccc(F)cc2)nn1, the IC50 (second compound 0.0316 µM) is reported as > 100 nM, the IC50 (second compound 0.1 µM) is reported as > 100 nM and the IC50 (second compound 0.316 µM) is reported as > 100 nM. For the same molecule, the IC50 (second compound 1 µM) was > 100 nM, the IC50 (second compound 3.16 µM) was > 100 nM and the IC50 (second compound 10 µM) was > 100 nM. The viability, T/C (second compound 0.0316 µM, first compound 0.000316 µM) was 109%, the viability, T/C (second compound 0.0316 µM, first compound 0.001 µM) was 106% and the viability, T/C [1] was 97.9%. The viability, T/C [2] was 91.8%, the viability, T/C [3] was 80.6% and the viability, T/C [4] was 65.9%. The viability, T/C (second compound 0.1 µM, first compound 0.000316 µM) was 100%, the viability, T/C (second compound 0.1 µM, first compound 0.001 µM) was 108% and the viability, T/C [5] was 95.3%. For the same molecule, the viability, T/C [6] was 92.1%, the viability, T/C [7] was 84.4% and the viability, T/C [8] was 57.7%. For the same molecule, the viability, T/C (second compound 0.316 µM, first compound 0.000316 µM) was 99.7%, the viability, T/C (second compound 0.316 µM, first compound 0.001 µM) was 105% and the viability, T/C [9] was 102%. For the same molecule, the viability, T/C [10] was 90%, the viability, T/C [11] was 80.1% and the viability, T/C [12] was 73.2%. It also gave a viability, T/C (second compound 1 µM, first compound 0.000316 µM) of 113%, a viability, T/C (second compound 1 µM, first compound 0.001 µM) of 97.8% and a viability, T/C [13] of 109%. For the same molecule, the viability, T/C [14] was 97%, the viability, T/C [15] was 82.6% and the viability, T/C [16] was 69.9%. For the same molecule, the viability, T/C (second compound 3.16 µM, first compound 0.000316 µM) was 102%, the viability, T/C (second compound 3.16 µM, first compound 0.001 µM) was 105% and the viability, T/C [17] was 95.8%. For the same molecule, the viability, T/C [18] was 108%, the viability, T/C [19] was 85.2% and the viability, T/C [20] was 62.2%. For the same molecule, the viability, T/C (second compound 10 µM, first compound 0.000316 µM) was 109%, the viability, T/C (second compound 10 µM, first compound 0.001 µM) was 119% and the viability, T/C [21] was 123%. The viability, T/C [22] was 114%, the viability, T/C [23] was 108% and the viability, T/C [24] was 68%.
